Non-standard residues stand in square brackets, D forms with d. No end group written: not given here. *: point of attachment. Biotin = O=C1N[C@H]2[C@H](CS[C@H]2CCCCC(=O)*)N1; R(dz) = photo-arginine
Tested on: HEK293T nuclear lysates
Assay: SILAC‐based pull‐down proteomics H4K5me1/H4K5 (probes 6/5)
Format: binding, human
Details: for B6 log2 (H4K5me/H4K5): run B6; for C6 log (H4K5me/H4K5): run C6

## probe 6: H4K5me peptide probe with photo‐arginine R(dz) and K(biotin) (SG[R(dz)]GK(Me)GGKGLGKGGK(Biotin))
10 µµ probe, 365 nm UV 30 min, streptavidin enrichment, n = 2
  proteins recruited (SILAC proteomics H4K5me1/H4K5): could recruit L3MBTL2
Protein A0A0B4J1Z1 SRSF7
  B6 log2 (H4K5me/H4K5): 0.2308
  C6 log (H4K5me/H4K5): 0.1007
Protein A0A0C4DG89 DDX46
  B6 log2 (H4K5me/H4K5): 0.248
  C6 log (H4K5me/H4K5): 0.4939
Protein A0A0C4DG98 THOC2
  B6 log2 (H4K5me/H4K5): 0.2302
  C6 log (H4K5me/H4K5): -0.4085
Protein A0A2R8Y5G6 DDX3X
  B6 log2 (H4K5me/H4K5): 0.1671
  C6 log (H4K5me/H4K5): 0.08362
Protein A0A2R8Y855 SMARCE1
  B6 log2 (H4K5me/H4K5): 0.1691
  C6 log (H4K5me/H4K5): 0.1589
Protein A0A087WWS1 THOC1
  B6 log2 (H4K5me/H4K5): 0.1897
  C6 log (H4K5me/H4K5): 0.01015
Protein A0A087X2G1 DDX1
  B6 log2 (H4K5me/H4K5): 0.2376
  C6 log (H4K5me/H4K5): 0.1483
Protein B1AK87 CAPZB
  B6 log2 (H4K5me/H4K5): 0.2362
  C6 log (H4K5me/H4K5): 0.1912
Protein C9JFR7 CYCS
  B6 log2 (H4K5me/H4K5): 0.1664
  C6 log (H4K5me/H4K5): 0.2306
Protein E5RJR5 SKP1
  B6 log2 (H4K5me/H4K5): 0.2613
  C6 log (H4K5me/H4K5): 0.4362
Protein E9PCY7 HNRNPH1
  B6 log2 (H4K5me/H4K5): 0.1643
  C6 log (H4K5me/H4K5): -0.04567
Protein E9PHA2 NCAPH
  B6 log2 (H4K5me/H4K5): 0.2207
  C6 log (H4K5me/H4K5): -0.3454
Protein F5GYN4 OTUB1
  B6 log2 (H4K5me/H4K5): 0.1534
  C6 log (H4K5me/H4K5): -0.02948
Protein F5H8F7 ASH2L
  B6 log2 (H4K5me/H4K5): 0.1889
  C6 log (H4K5me/H4K5): 0.02508
Protein F8VRQ1 HNRNPA1
  B6 log2 (H4K5me/H4K5): 0.2132
  C6 log (H4K5me/H4K5): 0.1279
Protein G3V4C1 HNRNPC
  B6 log2 (H4K5me/H4K5): 0.1754
  C6 log (H4K5me/H4K5): 0.1012
Protein G3V529 DDX24
  B6 log2 (H4K5me/H4K5): 0.1507
  C6 log (H4K5me/H4K5): -0.9684
Protein J3KTA4 DDX5
  B6 log2 (H4K5me/H4K5): 0.1484
  C6 log (H4K5me/H4K5): 0.164
Protein M0R3H0 RPS16
  B6 log2 (H4K5me/H4K5): 0.2369
  C6 log (H4K5me/H4K5): -0.3242
Protein O00567 NOP56
  B6 log2 (H4K5me/H4K5): 0.2329
  C6 log (H4K5me/H4K5): 0.2086
Protein O14980 XPO1
  B6 log2 (H4K5me/H4K5): 0.2117
  C6 log (H4K5me/H4K5): -0.03544
Protein O15042 U2SURP
  B6 log2 (H4K5me/H4K5): 0.1992
  C6 log (H4K5me/H4K5): 0.3265
Protein O43143 DHX15
  B6 log2 (H4K5me/H4K5): 0.2048
  C6 log (H4K5me/H4K5): 0.2816
Protein O43290 SART1
  B6 log2 (H4K5me/H4K5): 0.229
  C6 log (H4K5me/H4K5): 0.0852
Protein O43395 PRPF3
  B6 log2 (H4K5me/H4K5): 1.011
  C6 log (H4K5me/H4K5): 1.011
Protein O43491 EPB41L2
  B6 log2 (H4K5me/H4K5): 0.1873
  C6 log (H4K5me/H4K5): 0.1809
Protein O43719 HTATSF1
  B6 log2 (H4K5me/H4K5): 0.2156
  C6 log (H4K5me/H4K5): 0.1171
Protein O43929 ORC4
  B6 log2 (H4K5me/H4K5): 0.2071
  C6 log (H4K5me/H4K5): 0.2724
Protein O60216 RAD21
  B6 log2 (H4K5me/H4K5): 0.1881
  C6 log (H4K5me/H4K5): 0.2602
Protein O60934 NBN
  B6 log2 (H4K5me/H4K5): 0.1747
  C6 log (H4K5me/H4K5): 0.1942
Protein O75525 KHDRBS3
  B6 log2 (H4K5me/H4K5): 0.1909
  C6 log (H4K5me/H4K5): 0.05512
Protein O95202 LETM1
  B6 log2 (H4K5me/H4K5): 0.2397
  C6 log (H4K5me/H4K5): 0.3564
Protein O95218 ZRANB2
  B6 log2 (H4K5me/H4K5): 0.1711
  C6 log (H4K5me/H4K5): 0.2764
Protein O95456 PSMG1
  B6 log2 (H4K5me/H4K5): 0.8105
  C6 log (H4K5me/H4K5): 0.8105
Protein O95983 MBD3
  B6 log2 (H4K5me/H4K5): 0.1485
  C6 log (H4K5me/H4K5): 0.1715
Protein P06748 NPM1
  B6 log2 (H4K5me/H4K5): 0.1928
  C6 log (H4K5me/H4K5): 0.1848
Protein P07900 HSP90AA1
  B6 log2 (H4K5me/H4K5): 0.1623
  C6 log (H4K5me/H4K5): 0.0357
Protein P09661 SNRPA1
  B6 log2 (H4K5me/H4K5): 0.1608
  C6 log (H4K5me/H4K5): 0.0265
Protein P11142 HSPA8
  B6 log2 (H4K5me/H4K5): 0.1602
  C6 log (H4K5me/H4K5): 0.128
Protein P11388 TOP2A
  B6 log2 (H4K5me/H4K5): 0.1715
  C6 log (H4K5me/H4K5): -0.2242
Protein P12004 PCNA
  B6 log2 (H4K5me/H4K5): 0.186
  C6 log (H4K5me/H4K5): 0.08942
Protein P19338 NCL
  B6 log2 (H4K5me/H4K5): 0.2437
  C6 log (H4K5me/H4K5): 0.2101
Protein P22061 PCMT1
  B6 log2 (H4K5me/H4K5): 0.8673
  C6 log (H4K5me/H4K5): 0.8673
Protein P22087 FBL
  B6 log2 (H4K5me/H4K5): 0.1734
  C6 log (H4K5me/H4K5): 0.2534
Protein P22102 GART
  B6 log2 (H4K5me/H4K5): 0.1557
  C6 log (H4K5me/H4K5): -0.03854
Protein P25398 RPS12
  B6 log2 (H4K5me/H4K5): 0.2482
  C6 log (H4K5me/H4K5): 0.204
Protein P29692 EEF1D
  B6 log2 (H4K5me/H4K5): 0.1672
  C6 log (H4K5me/H4K5): -0.1339
Protein P31153 MAT2A
  B6 log2 (H4K5me/H4K5): 0.1703
  C6 log (H4K5me/H4K5): 0.05667
Protein P42166 TMPO
  B6 log2 (H4K5me/H4K5): 0.2154
  C6 log (H4K5me/H4K5): 0.1594
Protein P46109 CRKL
  B6 log2 (H4K5me/H4K5): 0.2247
